Laboratory results published in paper PMC3820767, “Turning Defense into Offense: Defensin Mimetics as Novel Antibiotics Targeting Lipid II” (PLoS Pathogens, 2013).

Columns and labels:
[1] = system: Escherichia coli ATCC 25922; test: Antibacterial killing, 96-well turbidimetric (modified vCC) assay; type: cell-based; details: for active against E.coli (IC100%): Table S3, concentration at which 100% killing occurred, no bacterial regrowth, No = not active
Summary of the method: (§1)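 Bacteria (E. coli, S. aureus) are first held with test compound in 10 mM phosphate buffer, 5% DMSO, for 30 min. Double-strength Mueller-Hinton medium is then added and turbidity tracked for 12 hours. MICs against pneumococci use the CLSI procedure.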

[2] = system: Staphylococcus aureus ATCC 29213; test: as above; type: cell-based
Summary of the method: as §1

[3] = Surface Plasmon Resonance binding to immobilized 3-Lipid II; details: SPR; for Binding on Lipid II?: Table S3, initial determination at 10 µM
Summary of the method: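 Binding was measured by Surface Plasmon Resonance on a BIAcore T100 instrument at 25°C. Peptides were injected over the sensor flow-cells at 30 µl/min in running buffer of 10 mM HEPES, 150 mM NaCl, 0.05% surfactant P20, pH 7.4 (±3 mM EDTA) with 10% DMSO. Control flow-cell signals were subtracted, surfaces were regenerated with 50 mM NaOH, and isotherms were fitted with BIAcore software.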

[4] = Cytotoxicity by MTT assay; type: cell-based, human; details: human, Caco-2 cells; Table S3; No = not cytotoxic; read-out: cytotoxic for Caco II (C50% survival)
Jurkat = test: Cytotoxicity by MTT assay; type: cell-based, human
[5] = system: Streptococcus pneumonia (PRSP) MMX884; test: Broth microdilution susceptibility testing (CLSI); type: cell-based, Streptococcus pneumoniae
Protocol: (§2) The antibacterial activity of defensin mimetics against Staphylococcus aureus ATCC 29213 and Escherichia coli 25922 was carried out in a 96-well turbidimetric assay essentially as described previously with the following modifications: bacteria were exposed for 30 min to compounds in 10 mM phosphate buffer containing 5% DMSO prior to addition of 2× Muller-Hinton medium. Bacterial growth was monitored for 12 hours and data were analyzed as described. Determination of MICs was performed by Micromyx, LLC (Kalamazoo, Michigan) according to CLSI standards.

[6] = system: Streptococcus pneumoniae MMX1195-ATCC 49619; test: Broth microdilution susceptibility testing (CLSI); type: cell-based
Protocol: as §2

[7] = system: Enterococcus faecalis (VRE) MMX848; test: Broth microdilution susceptibility testing (CLSI); type: cell-based
Protocol: as §2

[8] = system: Enterococcus faecalis MMX101-ATCC 29212; test: Broth microdilution susceptibility testing (CLSI); type: cell-based
Protocol: as §2

[9] = system: Staphylococcus aureus MMX100-ATCC 29213; test: Broth microdilution susceptibility testing (CLSI); type: cell-based
Protocol: as §2

[10] = system: Pseudomonas aeruginosa MMX103-ATCC 27853; test: Broth microdilution susceptibility testing (CLSI); type: cell-based
Protocol: as §2

[11] = system: Staphylococcus aureus (MRSA) MMX757; test: Broth microdilution susceptibility testing (CLSI); type: cell-based
Protocol: as §2

[12] = system: Escherichia coli MMX102-ATCC 25922; test: Broth microdilution susceptibility testing (CLSI); type: cell-based
Protocol: as §2

Caco-2 = test: Cytotoxicity by MTT assay; type: cell-based, human
[13] = system: Staphylococcus aureus ATCC 29213; test: Antagonization of defensin antibacterial activity by 3-Lipid II; type: cell-based; details: 50 µM defensin pre-incubated with 3-Lipid II at 1:1 molar ratio
Protocol: Antagonization of the antibacterial activity of defensins against Staphylococcus aureus ATCC 29213 was carried out in a 96-well turbidimetric assay essentially as described previously. Defensins (50 µM final concentration) were pre-incubated with 3-Lipid II at 1∶1, 1∶2.5 and 1∶5 defensin: Lipid II molar ratios for 30 min at RT. Following incubation, solutions were diluted two-fold in ten steps and bacteria were added. Defensin activity was neutralized by the addition of Mueller Hinton broth. Bacterial growth was monitored for 12 hours and data were analyzed as described.

[14] = concentration resulting in 100% killing after 30 min exposure, modified vCC assay

Compound | active against E.coli (IC100%) [1] | active against S.aureus (IC100%) ([2]; Table S3, concentration at which 100% killing occurred, no bacterial regrowth, No = not active) | Binding on Lipid II? [3] | IC50 [4] | Bacterial Killing E. coli [1, 14] | Bacterial Killing S. aureus [2, 14] | Kd ([3]; immobilized 3-Lipid II) | IC50 (Jurkat) | MIC Streptococcus pneumonia (PRSP) 884-NA [5] | MIC Streptococcus pneumoniae 1195-49619 [6] | MIC Enterococcus faecalis (VRE) 848-NA [7] | MIC Enterococcus faecalis 101-29212 [8] | MIC Staphylococcus aureus 100-29213 [9] | MIC Pseudomonas aeruginosa 103-27853 [10] | MIC Staphylococcus aureus (MRSA) 757-NA [11] | MIC Escherichia coli 102-25922 [12] | IC50 (Caco-2) | antagonization of bactericidal activity by Lipid II [13]
OCC1c2ccccc2-c2ccccc21 [Compound 4121-0081, 9H-fluoren-9-ylmethanol] | No | No | No | 202 µM | – | – | – | – | – | – | – | – | – | – | – | – | – | –
CC[n+]1c(/C=C/C=C2C=C(/C=C/N(C)c3ccccc3)CC(C)(C)C/2)sc2ccccc21.[I-] [Compound 5107930, 2-[(1E)-3-[(1E)-5,5-dimethyl-3-[(E)-2-[methyl(phenyl)amino]ethenyl]cyclohex-2-en-1-ylidene]prop-1-en-1-yl]-3-ethyl-1,3-benzothiazol-3-ium iodide] | 125 µM | – | Yes | – | 125 µM | 23.4 µM | 3.64 µM | > 223 µM | >64 µg/mL | >64 µg/mL | 16 µg/mL | 16 µg/mL | 16 µg/mL | >16 µg/mL | 16 µg/mL | >16 µg/mL | 27.9 µM | –
HNP-1: chemically synthesized wild-type human alpha-defensin Human Neutrophil peptide-1 | – | – | – | – | – | – | – | – | – | – | – | – | – | – | – | – | – | partly antagonized by one order of magnitude
